Measured values taken from patent US20160228403A1, “AGENT FOR PREVENTING OR AMELIORATING RENAL DYSFUNCTION” (TOHOKU UNIVERSITY, priority 2013, published 2016).

How the values were obtained:
[1] = system: Col1a1, Col3a1, Tgfb1, and Acta2; assay: Quantitative PCR of fibrosis-related marker mRNA in whole kidney; format: in vivo, mice
Method: [3] […]
(§1) In addition, 8 renal failure markers other than F4/80 and αSMA (4 nephritis-related markers [Tnfa, Il6, Pai-1, and Ccl2] and 4 fibrosis-related markers [Col1a1, Col3a1, Tgfb1, and Acta2]) were also analyzed. […] The expression level of mRNA of genes of the 8 renal failure markers (the 4 nephritis-related markers and the 4 fibrosis-related markers) was detected by performing quantitative PCR using Fast start universal probe master (from Roche Co., Ltd.) under the conditions described in the following 1) to 2). […]
(§2) The number of PCR cycles at which each PCR product reaches a certain amount (threshold cycle: Ct value) was measured using Baseline software (from Applied Biosystems Co., Ltd.); the relative Ct value of the cDNA amplification product of the gene of each of the 8 renal failure markers (the 4 nephritis-related markers and the 4 fibrosis-related markers) based on the Ct value of the cDNA amplification product of the GAPDH gene was determined by a comparative Ct method (delta-delta Ct method); and the relative amount of cDNA of the gene of each of the 8 renal failure markers (the 4 nephritis-related markers and the 4 fibrosis-related markers), i.e., the relative amount of mRNA of the gene of each of the 8 renal failure markers (the 4 nephritis-related markers and the 4 fibrosis-related markers), was calculated from the relative Ct value (see the ordinate of FIG. 5).

[2] = system: chronic renal failure model mice; assay: BUN and hemoglobin level in blood of chronic renal failure model mice (i-STAT); format: in vivo
Method: The present invention will be more specifically described below with reference to Examples. However, these Examples are not intended to limit the technical scope of the present invention. In Examples, to confirm that the administration of lubiprostone (trade name: Amitiza) could ameliorate renal function, chronic renal failure model mice were prepared by causing mice to eat adenine and analysis was performed using the chronic renal failure model mice. The chronic renal failure model mice are mice in which nephropathy occurs by the crystallization of the eaten adenine in the uriniferous tubule in the form of insoluble 2,8-dihydroxyadenine (Cozzolino, M. et al. Kidney Int. 64, 441-450 (2003) and Tamagaki, K. et al. Nephrol. Dial. Transplant 21, 651-659 (2006)). All experimental animals were operated after approval by the Ethics Committee of Tohoku University School of Medicine.
(§3) Chronic renal failure model mice to which lubiprostone was administered were prepared according to a method consisting of the following processes to [4]. The body weight of mice was measured on a weekly basis, and blood pressure was measured by a tailcuff method.
(§4) [1] Male C57BL/6 mice (purchased from Clea Japan, Inc.) were fed on an ordinary feed (CE-2 from Clea Japan, Inc.) until 6 weeks of age.
(§5) [2] At 7 weeks of age, the mice were divided into an ordinary fed group fed on the ordinary feed (control) and an adenine-diet fed group fed on an ordinary feed containing 0.2% adenine (from Wako) (adenine-diet).
[3] […]
Blood was collected according to an established method from the chronic renal failure model mice to which lubiprostone was administered prepared by the method described in Example 1, and the level of BUN in the blood of the mice was measured using i-STAT (from Fuso) (FIG. 2).

[3] = system: chronic renal failure model mice; assay: Histological analysis of renal tissue (PAS, MTS, picrosirius red) of chronic renal failure model mice; format: in vivo
Method: as §3, §4, §5
(§6) [3] The adenine-diet fed group was fed by returning the feed to the ordinary feed after 6 weeks of adenine-diet feeding (at 13 weeks of age) and divided into 3 administration groups (“corn-oil administration group” [vehicle], “lubiprostone 50 administration group” [Lubi50], and “lubiprostone 500 administration group” [Lubi500]; corn oil, 50 μg/kg (mouse body weight) of lubiprostone dissolved in corn oil [Amitiza capsule] [from Abbot Japan Co., Ltd.], and 500 μg/kg (mouse body weight) of lubiprostone dissolved in corn oil [from Abbot Japan Co., Ltd.] were forcibly orally administered using a sound to the “corn-oil administration group”, “lubiprostone 50 administration group”, and “lubiprostone 500 administration group”, respectively once daily for 12 days.
[4] After 24 hours, the mice were subjected to cervical dislocation.
(§7) Renal tissue sections were prepared to perform detailed renal tissue analysis. The renal tissue of the chronic renal failure model mice to which lubiprostone was administered prepared by the method described in Example 1 was fixed in 10% neutral-buffer formalin and embedded in paraffin. The paraffin-embedded renal tissue was sliced and analyzed using 3 histological staining methods (periodic acid-Schiff stain [PAS], Masson's trichrome stain [MTS], and picrosirius red stain) (FIG. 3).

[4] = system: Tnfa, Il6, Pai-1, and Ccl2; assay: Quantitative PCR of nephritis-related marker mRNA in whole kidney; format: in vivo, mice
Method: [3] […]
as §1, §2

[5] = system: F4/80; assay: DAB staining of renal failure marker protein F4/80 in renal tissue sections; format: in vivo, mice; details: lubiprostone 50 or 500 μg/kg vs corn oil administration group; FIG. 4 upper
Method: as §6, §7
(§8) F4/80 and αSMA are known as renal failure markers. […]

[6] = Body weight of chronic renal failure model mice given lubiprostone; format: in vivo; details: adenine-diet mice; lubiprostone 50 or 500 μg/kg orally once daily for 12 days; FIG. 1
Method: as §3, §4, §5
[3] […]
In the 4 groups (the ordinary fed group, the corn-oil administration group, the lubiprostone 50 administration group, and the lubiprostone 500 administration group), the body weight of mice at 7 weeks of age (immediately after adenine-diet feeding), at 9 weeks of age (at 2 weeks of age after adenine-diet feeding), at 11 weeks of age (at 4 weeks of age after adenine-diet feeding), at 13 weeks of age (immediately after lubiprostone administration), and at cervical dislocation (at 13/7 [≈1.86] weeks after lubiprostone administration) was measured; the results are shown in FIG. 1.

[7] = system: αSMA; assay: DAB staining of renal failure marker protein αSMA in renal tissue sections; format: in vivo, mice; details: lubiprostone 50 or 500 μg/kg vs corn oil administration group; FIG. 4 lower
Method: as §6, §7, §8

[8] = lubiprostone 500 administration group (500 μg/kg), Dunnett test, FIG. 5

CCCCC(F)(F)C(=O)CC[C@H]1[C@H](O)CC(=O)[C@@H]1CCCCCCC(=O)O [lubiprostone, (−)-7-[(2R,4aR,5R,7aR)-2-(1,1-difluoropentyl)-2-hydroxy-6-oxooctahydrocyclopenta[b]pyran-5-yl]heptanoic acid]
mRNA of the 4 fibrosis-related markers, statistical difference to the corn oil administration group [1, 8]: a significant difference was noted | expression level of mRNA of the 4 fibrosis-related markers (Col1a1, Col3a1, Tgfb1, Acta2) ([1]; relative to GAPDH, lubiprostone 50 or 500 μg/kg vs corn oil administration group, FIG. 5 panel B): decreased the expression level of mRNA | level of hemoglobin (Hb) in the blood ([2]; chronic renal failure model mice given lubiprostone): did not change | increase in the blood BUN level ([2]; lubiprostone 50 or 500 μg/kg orally once daily for 12 days vs corn oil administration group, FIG. 2): suppressed in a manner dependent on the dose of lubiprostone | blood BUN level, statistical difference to the corn oil administration group ([2]; lubiprostone 500 administration group (500 μg/kg), Dunnett test p<0.05, FIG. 2): a significant difference was noted | fibrosis of the kidney, collagen fiber staining by picrosirius red stain, renal tissue sections ([3]; lubiprostone 50 or 500 μg/kg vs corn oil administration group, FIG. 3 panel A bottom): the fibrosis of the kidney was suppressed | fibrosis of the kidney, collagen fiber staining by MTS method, renal tissue sections ([3]; lubiprostone 50 or 500 μg/kg vs corn oil administration group, FIG. 3 panel A middle): the fibrosis of the kidney was suppressed | uriniferous tubule, PAS stain of renal tissue sections ([3]; lubiprostone 50 or 500 μg/kg vs corn oil administration group, FIG. 3 panel A top): recovery of the uriniferous tubule was noted | fibrosis of the kidney, collagen fiber staining by MTS method, whole kidney ([3]; lubiprostone 50 or 500 μg/kg vs corn oil administration group, FIG. 3 panel B top): the fibrosis of the kidney was suppressed | decrease of the renal uriniferous tubule (tubules area, MTS method, whole kidney) ([3]; lubiprostone 50 or 500 μg/kg vs corn oil administration group, FIG. 3 panels B bottom and C): suppressed in a manner dependent on the dose of lubiprostone | proportion of the renal uriniferous tubule in the whole kidney, statistical difference to the corn oil administration group ([3]; lubiprostone 500 administration group (500 μg/kg), Dunnett test p<0.01, FIG. 3 panel C): a significant difference was noted | mRNA of 3 nephritis-related markers (excluding Il6), statistical difference to the corn oil administration group [4, 8]: a significant difference was noted | expression level of mRNA of the 4 nephritis-related markers (Tnfa, Il6, Pai-1, Ccl2) ([4]; relative to GAPDH, lubiprostone 50 or 500 μg/kg vs corn oil administration group, FIG. 5 panel A): decreased the expression level of mRNA | increase in the expression of renal failure marker F4/80 protein [5]: suppressed | recovery of body weight after return to ordinary feed [6]: did not affect the recovery of body weight | increase in the expression of renal failure marker αSMA protein [7]: suppressed
